Experimental data taken from patent EP4559911A1, “NOVEL HETEROCYCLIC COMPOUND AND PHARMACEUTICAL COMPOSITION FOR INHIBITING AUTOTAXIN COMPRISING THE SAME” (Nextgen Bioscience Co., Ltd., priority 2022, dated 2024).

Target: human Autotaxin protein (Homo sapiens, UniProt Q13822)
Assay: Evaluation of the inhibitory activity against human Autotaxin protein (18:1 LysoPC substrate, choline assay kit, absorbance at 570 nm)
Assay type: biochemical
Settings: compound at 500nM; 2 hours at 37 °C; % inhibition = (1 - absorbance test group / absorbance control group) X 100
How it was run: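 Human autotaxin (20 μL of 240 nM stock) was reacted with sonicated 18:1 LysoPC (10 μL of 360 μM stock) in Tris pH 8.0 buffer with BSA for 2 h at 37 °C, using 6 compound concentrations from 5-fold dilution. Released choline was detected via choline oxidase/dye probe (30 min), read as absorbance at 570 nm. % inhibition was calculated relative to control.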

`Fc1cc2c(cc1F)CC(Nc1ncc(-c3nnc(N4CCC(c5c[nH]cn5)C4)o3)cn1)C2` (stereo not shown) [Example 38, 5-(5-(3-(1H-imidazol-4-yl)pyrrolidin-1-yl)-1,3,4-oxadiazol-2-yl)-N-(5,6-difluoro-2,3-dihydro-1H-inden-2-yl)pyrimidin-2-amine] was tested. Which inhibition at 0.5 µM did it give?
The inhibition at 0.5 µM was 55%.

With `CC1(c2c[nH]nn2)CN(c2nnc(-c3cnc(NC4Cc5ccccc5C4)nc3)o2)C1` [Example 69, N-(2,3-dihydro-1H-inden-2-yl)-5-(5-(3-methyl-3-(1H-1,2,3-triazol-4-yl)azetidin-1-yl)-1,3,4-oxadiazol-2-yl)pyrimidin-2-amine] as the molecule, how does the inhibition at 0.5 µM read?
Its inhibition at 0.5 µM is 95.4%.

How did the inhibition at 0.5 µM turn out when `CC1(c2c[nH]nn2)CN(c2nnc(-c3cnc(NC4Cc5cc(F)c(F)cc5C4)nc3)o2)C1` [Example 51, N-(5,6-difluoro-2,3-dihydro-1H-inden-2-yl)-5-(5-(3-methyl-3-(1H-1,2,3-triazol-4-yl)azetidin-1-yl)-1,3,4-oxadiazol-2-yl)pyrimidin-2-amine] was run?
Its inhibition at 0.5 µM is 91.8%.

For `CS(=O)(=O)OC1CCN(c2nnc(-c3cnc(NC4Cc5cc(F)c(F)cc5C4)nc3)o2)C1` (stereo not shown) [Example 27, 1-(5-(2-((5,6-difluoro-2,3-dihydro-1H-inden-2-yl)amino)pyrimidin-5-yl)-1,3,4-oxadiazol-2-yl)pyrrolidin-3-yl methanesulfonate], which inhibition at 0.5 µM is on record?
The inhibition at 0.5 µM was 12.1%.

Which inhibition at 0.5 µM does the source give for `Fc1cc2c(cc1F)CC(Nc1ncc(C3CC(N4CCC(c5c[nH]nn5)C4)=NO3)cn1)C2` (stereo not shown) [Example 17, 5-(3-(3-(1H-1,2,3-triazol-4-yl)pyrrolidin-1-yl)-4,5-dihydroisoxazol-5-yl)-N-(5,6-difluoro-2,3-dihydro-1H-inden-2-yl)pyrimidin-2-amine] here?
Its inhibition at 0.5 µM is 39.5%.

`CC(C)(C)C(=O)OCn1cc(C2CN(c3nnc(-c4cnc(NC5Cc6ccncc6C5)nc4)o3)C2)nn1` (stereo not shown) [Example 84, (4-(1-(5-(2-((6,7-dihydro-5H-cyclopenta[c]pyridin-6-yl)amino)pyrimidin-5-yl)-1,3,4-oxadiazol-2-yl)azetidin-3-yl)-1H-1,2,3-triazol-1-yl)methyl pivalate] was tested. Which inhibition at 0.5 µM did it give?
The inhibition at 0.5 µM was 1.1%.

`CN(c1ncc(-c2nnc(N3CC(c4c[nH]nn4)C3)o2)cn1)C1Cc2cc(F)c(F)cc2C1` [Example 88, 5-(5-(3-(1H-1,2,3-triazol-4-yl)azetidin-1-yl)-1,3,4-oxadiazol-2-yl)-N-(5,6-difluoro-2,3-dihydro-1H-inden-2-yl)-N-methylpyrimidin-2-amine] was tested. Which inhibition at 0.5 µM did it give?
Its inhibition at 0.5 µM is 10.5%.

How did the inhibition at 0.5 µM turn out when `Fc1cc2c(cc1F)CC(Nc1cnc(-c3nnc(N4CCC(c5c[nH]nn5)C4)o3)cn1)C2` (stereo not shown) [Example 14, 5-(5-(3-(1H-1,2,3-triazol-4-yl)pyrrolidin-1-yl)-1,3,4-oxadiazol-2-yl)-N-(5,6-difluoro-2,3-dihydro-1H-inden-2-yl)pyrazin-2-amine] was run?
The inhibition at 0.5 µM was 23.3%.

`CC1(c2c[nH]nn2)CCN(C(=O)/C=C/c2cnc(NC3Cc4ccccc4C3)nc2)C1` (stereo not shown) [Example 34, (E)-3-(2-((2,3-dihydro-1H-inden-2-yl)amino)pyrimidin-5-yl)-1-(3-methyl-3-(1H-1,2,3-triazol-4-yl)pyrrolidin-1-yl)prop-2-en-1-one] was tested. Which inhibition at 0.5 µM did it give?
Its inhibition at 0.5 µM is 88.4%.

How did the inhibition at 0.5 µM turn out when `CC(C)(C)C(=O)OCn1cc(C2CN(c3nnc(-c4cnc(NC5Cc6nccnc6C5)nc4)o3)C2)nn1` [Example 72, (4-(1-(5-(2-((6,7-dihydro-5H-cyclopenta[b]pyrazin-6-yl)amino)pyrimidin-5-yl)-1,3,4-oxadiazol-2-yl)azetidin-3-yl)-1H-1,2,3-triazol-1-yl)methyl pivalate] was run?
The inhibition at 0.5 µM was 3.1%.

With `Fc1cc2c(cc1F)CC(Nc1ncc(C3CC(N4CC(c5c[nH]nn5)C4)=NO3)cn1)C2` (stereo not shown) [Example 43, 5-(3-(3-(1H-1,2,3-triazol-4-yl)azetidin-1-yl)-4,5-dihydroisoxazol-5-yl)-N-(5,6-difluoro-2,3-dihydro-1H-inden-2-yl)pyrimidin-2-amine] as the molecule, how does the inhibition at 0.5 µM read?
Its inhibition at 0.5 µM is 35.4%.

For `O=C(CCc1cnc(NC2Cc3cc(F)c(F)cc3C2)nc1)N1CC(c2c[nH]nn2)C1` [Example 44, 1-(3-(1H-1,2,3-triazol-4-yl)azetidin-1-yl)-3-(2-((5,6-difluoro-2,3-dihydro-1H-inden-2-yl)amino)pyrimidin-5-yl)propan-1-one], which inhibition at 0.5 µM is on record?
The inhibition at 0.5 µM was 51.5%.

For `FC1(c2c[nH]nn2)CN(c2nnc(-c3cnc(NC4Cc5ccc(Br)cc5C4)nc3)o2)C1` (stereo not shown) [Example 89, N-(5-bromo-2,3-dihydro-1H-inden-2-yl)-5-(5-(3-fluoro-3-(1H-1,2,3-triazol-4-yl)azetidin-1-yl)-1,3,4-oxadiazol-2-yl)pyrimidin-2-amine], which inhibition at 0.5 µM is on record?
Its inhibition at 0.5 µM is 84.9%.

With `Fc1cc2c(cc1F)CC(Nc1ncc(-c3nnc(N4CC(N5CCOCC5)C4)o3)cn1)C2` [Example 81, N-(5,6-difluoro-2,3-dihydro-1H-inden-2-yl)-5-(5-(3-morpholinoazetidin-1-yl)-1,3,4-oxadiazol-2-yl)pyrimidin-2-amine] as the molecule, how does the inhibition at 0.5 µM read?
The inhibition at 0.5 µM was 7%.

`Fc1cc2c(cc1F)CC(Nc1ncc(-c3nnc(N4CC(F)(c5c[nH]nn5)C4)o3)cn1)C2` [Example 56, N-(5,6-difluoro-2,3-dihydro-1H-inden-2-yl)-5-(5-(3-fluoro-3-(1H-1,2,3-triazol-4-yl)azetidin-1-yl)-1,3,4-oxadiazol-2-yl)pyrimidin-2-amine] was tested. Which inhibition at 0.5 µM did it give?
Its inhibition at 0.5 µM is 85.2%.

How did the inhibition at 0.5 µM turn out when `COC(=O)C1CN(c2nnc(-c3cnc(NC4Cc5cc(F)c(F)cc5C4)nc3)o2)C1` [Example 47, methyl 1-(5-(2-((5,6-difluoro-2,3-dihydro-1H-inden-2-yl)amino)pyrimidin-5-yl)-1,3,4-oxadiazol-2-yl)azetidine-3-carboxylate] was run?
Its inhibition at 0.5 µM is 7.5%.

Which inhibition at 0.5 µM does the source give for `O=C(O)CC1CN(c2nnc(-c3cnc(NC4Cc5cc(F)c(F)cc5C4)nc3)o2)C1` [Example 53, 2-(1-(5-(2-((5,6-difluoro-2,3-dihydro-1H-inden-2-yl)amino)pyrimidin-5-yl)-1,3,4-oxadiazol-2-yl)azetidin-3-yl)acetic acid] here?
Its inhibition at 0.5 µM is 24.7%.

`Brc1ccc2c(c1)CC(Nc1ncc(-c3nnc(N4CC(c5c[nH]nn5)C4)o3)cn1)C2` (stereo not shown) [Example 64, 5-(5-(3-(1H-1,2,3-triazol-4-yl)azetidin-1-yl)-1,3,4-oxadiazol-2-yl)-N-(5-bromo-2,3-dihydro-1H-inden-2-yl)pyrimidin-2-amine] was tested. Which inhibition at 0.5 µM did it give?
The inhibition at 0.5 µM was 100%.

With `CC(C)(C)C(=O)OCn1cc(C2CCN(c3nnc(-c4cnc(NC5Cc6cc(F)c(F)cc6C5)nc4)o3)C2)nn1` (stereo not shown) [Example 2, (4-(1-(5-(2-((5,6-difluoro-2,3-dihydro-1H-inden-2-yl)amino)pyrimidin-5-yl)-1,3,4-oxadiazol-2-yl)pyrrolidin-3-yl)-1H-1,2,3-triazol-1-yl)methyl pivalate] as the molecule, how does the inhibition at 0.5 µM read?
The inhibition at 0.5 µM was 3%.

Which inhibition at 0.5 µM does the source give for `OC1CCN(c2nnc(-c3cnc(NC4Cc5cc(F)c(F)cc5C4)nc3)o2)C1` (stereo not shown) [Example 26, 1-(5-(2-((5,6-difluoro-2,3-dihydro-1H-inden-2-yl)amino)pyrimidin-5-yl)-1,3,4-oxadiazol-2-yl)pyrrolidin-3-ol] here?
Its inhibition at 0.5 µM is 1%.

For `COc1ccc2c(c1)CC(Nc1ncc(-c3nnc(N4CCC(c5c[nH]nn5)C4)o3)cn1)C2` (stereo not shown) [Example 13, 5-(5-(3-(1H-1,2,3-triazol-4-yl)pyrrolidin-1-yl)-1,3,4-oxadiazol-2-yl)-N-(5-methoxy-2,3-dihydro-1H-inden-2-yl)pyrimidin-2-amine], which inhibition at 0.5 µM is on record?
Its inhibition at 0.5 µM is 96.8%.

With `CC1(c2c[nH]nn2)CCN(c2nnc(-c3cnc(NCCc4cc(Cl)cc(Cl)c4)nc3)o2)C1` (stereo not shown) [Example 32, N-(3,5-dichlorophenethyl)-5-(5-(3-methyl-3-(1H-1,2,3-triazol-4-yl)pyrrolidin-1-yl)-1,3,4-oxadiazol-2-yl)pyrimidin-2-amine] as the molecule, how does the inhibition at 0.5 µM read?
The inhibition at 0.5 µM was 21.9%.
